What was measured:
[1] = biological target: T1, soluble guanylate cyclase (sGC) (Homo sapiens, UniProt Q02108+Q02153); assay: sGC-HEK-cGMP assay; type: cell-based; conditions: HEK293 cells, 10 min incubation, intracellular cGMP by LC/MS; for Increase in cGMP Concentration Tested at 10 μM in HEK Assay: test compound 10 μM; for Increase in cGMP Concentration Tested at 30 μM in HEK Assay: test compound 30 μM
T1 construct: endogenously expressing soluble guanylate cyclase (sGC); endogenous in cells; host or cells: HEK293
T1 sequence (Q02153 1-619): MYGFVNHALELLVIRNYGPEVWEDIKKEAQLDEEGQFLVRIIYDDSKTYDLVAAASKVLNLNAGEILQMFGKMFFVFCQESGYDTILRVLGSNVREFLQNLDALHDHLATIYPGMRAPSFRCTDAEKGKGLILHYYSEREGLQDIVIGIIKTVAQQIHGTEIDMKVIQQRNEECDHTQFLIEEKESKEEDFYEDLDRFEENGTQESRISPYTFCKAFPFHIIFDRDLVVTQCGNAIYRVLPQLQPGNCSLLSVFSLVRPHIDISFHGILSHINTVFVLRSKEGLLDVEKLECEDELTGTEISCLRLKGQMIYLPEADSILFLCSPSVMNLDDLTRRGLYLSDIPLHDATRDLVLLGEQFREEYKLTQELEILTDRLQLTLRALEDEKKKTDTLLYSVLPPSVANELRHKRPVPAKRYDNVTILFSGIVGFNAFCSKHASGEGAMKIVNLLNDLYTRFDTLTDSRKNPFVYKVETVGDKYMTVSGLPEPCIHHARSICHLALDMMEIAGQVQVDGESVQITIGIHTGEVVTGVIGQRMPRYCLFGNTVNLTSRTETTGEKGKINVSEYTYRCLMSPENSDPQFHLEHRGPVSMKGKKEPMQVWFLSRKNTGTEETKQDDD
T1 sequence (Q02108 1-690): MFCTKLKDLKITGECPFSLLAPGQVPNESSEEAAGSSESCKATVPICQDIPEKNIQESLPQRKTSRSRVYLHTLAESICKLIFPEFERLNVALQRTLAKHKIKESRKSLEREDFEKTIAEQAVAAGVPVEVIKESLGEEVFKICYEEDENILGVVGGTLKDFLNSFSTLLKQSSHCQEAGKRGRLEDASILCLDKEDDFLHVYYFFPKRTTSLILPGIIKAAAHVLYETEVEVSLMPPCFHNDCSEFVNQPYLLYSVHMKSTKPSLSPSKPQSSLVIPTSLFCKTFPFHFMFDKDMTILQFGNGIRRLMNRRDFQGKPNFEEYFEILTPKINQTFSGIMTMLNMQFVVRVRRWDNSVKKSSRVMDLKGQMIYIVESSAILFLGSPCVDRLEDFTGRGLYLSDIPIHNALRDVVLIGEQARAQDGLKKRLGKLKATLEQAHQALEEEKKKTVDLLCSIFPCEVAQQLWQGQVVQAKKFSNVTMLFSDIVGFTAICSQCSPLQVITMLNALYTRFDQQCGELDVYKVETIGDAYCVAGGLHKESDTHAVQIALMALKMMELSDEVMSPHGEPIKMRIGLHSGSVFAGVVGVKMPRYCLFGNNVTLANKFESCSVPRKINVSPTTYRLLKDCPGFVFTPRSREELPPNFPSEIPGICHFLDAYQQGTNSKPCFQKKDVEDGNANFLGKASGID
Protocol: Human embryonic kidney cells (HEK293), endogenously expressing soluble guanylate cyclase (sGC), were used to evaluate the activity of test compounds. Compounds stimulating the sGC receptor should cause an increase in the intracellular concentration of cGMP. […] Cells were then incubated for 15 minutes at 37° C. with 0.5 mM 3-isobutyl-1-methylxanthine (2004). Test article was then added to the assay mixture (2 μL) and incubated at 37° C. for 10 minutes. After the 10 minute incubation, the assay mixture was aspirated and 0.1M HCl (2004) was added to the cells. The plate was incubated at 4° C. for 30 minutes in the 0.1M HCl to stop the reaction and lyse the cells. The plates were then centrifuged at 1,200 g for 5 minutes at room temperature. Supernatants were collected and transferred to a new flat bottom 96 well plate for analysis. Vehicle controls were carried out using DMSO (1%). A known sGC stimulator, BAY 41-2272, was used as the positive control.
Samples were diluted with an equal volume of 1 M Ammonium Acetate (pH 7) to neutralize samples for better chromatography. A 2×cGMP standard curve was prepared in 0.1 M HCl and then diluted with an equal volume of 1 M Ammonium Acetate, with the following final concentrations in nM: 1024, 512, 256, 128, 64, 32, 16, 8, 4, 2, 1.
cGMP concentrations were determined from each sample using the LC/MS conditions (Table 2 below) and calculated standard curve. EC50 values were calculated from concentration-response curves generated with GraphPad Prism Software.

thoracic aortic rings = assay: Thoracic aortic rings assay; conditions: relaxation of male Sprague-Dawley rat aortic rings contracted with 100 ng/mL phenylephrine; read-out: EC50, thoracic aortic ring assay activity
Protocol: Thoracic aortic rings were dissected from anesthetized (isoflurane) male Sprague-Dawley rats weighing 275-299 g. Tissues were immediately transferred to ice-cold Krebs-Henseleit solution, which had been aerated with 95% O2 and 5% CO2 for 30 minutes. Following removal of connective tissue, aortic sections were cut into 4 rings (˜2 mm each) and suspended on 2 L-shaped hooks, with one hook fixed at the bottom of the tissue bath (Schuler Organ Bath, Harvard Apparatus) and the other connected to a force transducer (F30 Force Transducer, Harvard Apparatus). Baths contained Krebs Henseleit solution (10 mL) heated to 37° C. and aerated with 95% O2 and 5% CO2. Rings were brought to an initial tension of 0.3-0.5 g and gradually raised to a resting tension of 1.0 g over 60 minutes. Rings were rinsed with Krebs Henseleit solution (heated to 37° C. and aerated with 95% O2 and 5% CO2) at 15 minute intervals until a stable baseline was obtained. Rings were considered to be stable after a resting tension of 1.0 g was maintained (for approximately 10 minutes) without need for adjustment. Rings were then contracted with 100 ng/mL phenylephrine by adding 100 uL of a […] phenylephrine stock solution. Tissues achieving a stable contraction were then treated in a cumulative, dose dependent manner with test compounds prepared in dimethylsulfoxide (DMSO). In some cases, tissues were rinsed three times over a 5 minute period with Krebs-Heinseleit's solution (heated to 37° C. and aerated with 95% O2 and 5% CO2), allowed to stabilize at baseline, and then used for characterization of other test articles or DMSO effects. All data were collected using the HSE-ACAD software provided by Harvard Apparatus. Percent relaxation effects were calculated in Microsoft Excel using the recorded tension value of 100 ng/mL phenylephrine treatment as 0% inhibition and treatment with 100 μM 3-isobutyl-1-methylxanthine as 100% inhibition. EC50 values were calculated from concentration-response curves generated with GraphPad Prism Software.

Row | Structure (SMILES) | Increase in cGMP Concentration Tested at 10 μM in HEK Assay [1] | Increase in cGMP Concentration Tested at 30 μM in HEK Assay [1] | EC50 (thoracic aortic rings) [nM]
1 | COC(=O)N(C)c1c(N)nc(-c2nn(Cc3ccccc3F)c3c2CCC3)nc1N [Compound I-37] | C (C represents an increase ranging from 10 fold to less than 20 fold) | B (B represents an increase ranging from 5 fold to less than 10 fold) | 1200
2 | Nc1ccnc(-c2nn(Cc3ccccc3F)c3c2CCC3)n1 [Compound I-3] | D (D represents an increase ranging from 20 fold to less than 50 fold) | E (E represents an increase ranging from 50 fold to less than 100 fold) | 1200
3 | Nc1nc(-c2nn(Cc3ccccc3F)c3ncccc23)ncc1C1CC1 [Reference Cpd., BAY 41-2272, reference compound] | – | – | 340 to 950
4 | Nc1ccnc(-c2nn(Cc3ccccc3F)c3c2CCCC3)n1 [Compound I-22] | D (D represents an increase ranging from 20 fold to less than 50 fold) | E (E represents an increase ranging from 50 fold to less than 100 fold) | 2000
5 | Fc1ccccc1Cn1nc(-c2ncccn2)c2c1CCCC2 [Compound I-1] | D (D represents an increase ranging from 20 fold to less than 50 fold) | D (D represents an increase ranging from 20 fold to less than 50 fold) | 1300
6 | CC1(C)Cc2c(c(-c3ncccn3)nn2Cc2ccccc2F)C(O)C1 (centres unmarked) [Compound I-32] | A (A represents no increase or an increase ranging from more than 0 fold to less than 5 fold) | A (A represents no increase or an increase ranging from more than 0 fold to less than 5 fold) | –
7 | Nc1nc(-c2nn(Cc3ccccc3F)c3c2CCCC3)nc(N)c1NC(=O)OCCCl [Compound I-25] | A (A represents no increase or an increase ranging from more than 0 fold to less than 5 fold) | B (B represents an increase ranging from 5 fold to less than 10 fold) | –

Reference: patent US20130178475A1, “sGC STIMULATORS” (IRONWOOD PHARMACEUTICALS, INC., priority 2010, published 2013)
